From patent publication US7517873B2, “Substituted pyrimidodiazepines” (Hoffman-La Roche Inc., priority 2007, dated 2009) come the findings set out here.

A value given as a limit tells only on which side of the number the result lay.

The target in the test is T1, GST-PLK1 (Homo sapiens, UniProt P53350).
T1 construct: Full-length, active GST-PLK1 is purified from Sf9 insect cells; made in house; host or cells: Sf9 insect cells
Put plainly: Biochemical Characterization Assay: GST-PLK1 kinase HTRF assay with GST-p53 substrate. The settings on record: full-length GST-PLK1, GST-p53 and ATP, 37° C. for 35 minutes, HTRF signal. The procedure: Biochemical Characterization Assay
Full-length, active GST-PLK1 is purified from Sf9 insect cells, and full-length GST-p53 is purified from E. coli. Anti-phospho p53 antibody is from Cell Signaling Technology. Europium-conjugated anti-rabbit antibody is from PerkinElmer Life and Analytical Sciences. APC-conjugated anti-GST antibody is from Prozyme.
To assay compounds of the invention, two microliters of test compound (0.6 nM-4 mM) in DMSO or plain DMSO for control wells, 38 microliters of 20 mM HEPES pH 7, 50 mM NaCl, 10 mM MgCl2, 0.5 mM TCEP, 0.1 mM sodium orthovanadate, 0.1 mg/mL BSA, and 0.05% Triton X-100 (Kinase Assay Buffer) are added. […] Six microliters of GST-PLK1 (3 ug/mL) in Kinase Assay Buffer are then added and the solution incubated at 37° C. for 35 minutes. Six microliters of solution containing 43 mM EDTA to stop the reaction and a 1:600 dilution of anti-phospho-p53 antibody in 20 mM HEPES pH 7, 50 mM NaCl, and 0.5 mg/mL BSA (Antibody Binding Buffer) are added and the solution incubated at 37° C. for 30 minutes. […] The HTRF signal is read on an Envision reader from PerkinElmer Life and Analytical Sciences.

T1 sequence (P53350 whole entry): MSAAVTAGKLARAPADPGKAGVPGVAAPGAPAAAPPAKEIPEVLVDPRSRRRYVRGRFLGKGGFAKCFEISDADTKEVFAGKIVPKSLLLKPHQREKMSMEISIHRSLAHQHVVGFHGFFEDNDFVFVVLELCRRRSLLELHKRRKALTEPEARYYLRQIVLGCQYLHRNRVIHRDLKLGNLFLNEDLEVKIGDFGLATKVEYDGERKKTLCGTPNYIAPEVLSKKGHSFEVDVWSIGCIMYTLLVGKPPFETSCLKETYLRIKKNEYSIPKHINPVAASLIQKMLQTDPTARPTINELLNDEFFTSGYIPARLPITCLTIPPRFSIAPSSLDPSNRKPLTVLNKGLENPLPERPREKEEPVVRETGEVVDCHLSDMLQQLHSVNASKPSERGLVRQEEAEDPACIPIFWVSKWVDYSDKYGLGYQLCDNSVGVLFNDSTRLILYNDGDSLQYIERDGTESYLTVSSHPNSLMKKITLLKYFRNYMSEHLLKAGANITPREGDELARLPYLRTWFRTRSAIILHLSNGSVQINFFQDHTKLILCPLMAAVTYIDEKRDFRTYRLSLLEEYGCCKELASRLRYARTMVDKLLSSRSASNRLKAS

The term IC50 denotes the concentration needed to halve the response being measured. A lower IC50 goes with higher potency. `COc1cc(C(=O)NC2CCN(C)CC2)ccc1Nc1ncc2c(n1)N(C1CCCC1)CC(C)C(=O)N2C` (racemic) [I-2, (rac)-4-(9-Cyclopentyl-5,7-dimethyl-6-oxo-6,7,8,9-tetrahydro-5H-pyrimido[4,5-b][1,4]diazepin-2-ylamino)-3-methoxy-N-(1-methyl-piperidin-4-yl)-benzamide] returned an IC50 of less than 500 nM.
The value for `COc1cc(C(=O)O)ccc1Nc1ncc2c(n1)N(C1CCCC1)C(C)CC(=O)N2C` (racemic) [I-3, (rac)-4-(9-Cyclopentyl-5,8-dimethyl-6-oxo-6,7,8,9-tetrahydro-5H-pyrimido[4,5-b][1,4]diazepin-2-ylamino)-3-methoxy-benzoic acid] was 500 to 5000 nM; that for `COc1cc(C(=O)NC2CCN(C)CC2)ccc1Nc1ncc2c(n1)N(C1CCCC1)C(C)CC(=O)N2C` (racemic) [I-4, (rac)-4-(9-Cyclopentyl-5,8-dimethyl-6-oxo-6,7,8,9-tetrahydro-5H-pyrimido[4,5-b][1,4]diazepin-2-ylamino)-3-methoxy-N-(1-methyl-piperidin-4-yl)-benzamide] was less than 500 nM; that for `CC1CN(C2CCCC2)c2nc(Nc3ccc(C(=O)NC4CCN(C)CC4)cc3)ncc2N(C)C1=O` (racemic) [I-6, (rac)-4-(9-Cyclopentyl-5,7-dimethyl-6-oxo-6,7,8,9-tetrahydro-5H-pyrimido[4,5-b][1,4]diazepin-2-ylamino)-N-(1-methyl-piperidin-4-yl)-benzamide] was less than 500 nM.
In turn, `Cc1cc(C(=O)NC2CCN(C)CC2)ccc1Nc1ncc2c(n1)N(C1CCCC1)CC(C)C(=O)N2C` (racemic) [I-8, (rac)-4-(9-Cyclopentyl-5,7-dimethyl-6-oxo-6,7,8,9-tetrahydro-5H-pyrimido[4,5-b][1,4]diazepin-2-ylamino)-3-methyl-N-(1-methyl-piperidin-4-yl)-benzamide] gave an IC50 of less than 500 nM.
In turn, `COc1cc(C(=O)NC2CCN(Cc3ccccc3)CC2)ccc1Nc1ncc2c(n1)N(C1CCCC1)CC(C)C(=O)N2C` (racemic) [I-9, (rac)-N-(1-Benzyl-piperidin-4-yl)-4-(9-cyclopentyl-5,7-dimethyl-6-oxo-6,7,8,9-tetrahydro-5H-pyrimido[4,5-b][1,4]diazepin-2-ylamino)-3-methoxy-benzamide] yielded an IC50 of less than 500 nM.
The value for `CCC1CN(C2CCCC2)c2nc(Nc3ccc(C(=O)NC4CCN(C)CC4)cc3OC)ncc2N(C)C1=O` (racemic) [I-13, (rac)-4-(9-Cyclopentyl-7-ethyl-5-methyl-6-oxo-6,7,8,9-tetrahydro-5H-pyrimido[4,5-b][1,4]diazepin-2-ylamino)-3-methoxy-N-(1-methyl-piperidin-4-yl)-benzamide] was less than 500 nM; that for `CCC1CN(C2CCCC2)c2nc(Nc3ccc(C(=O)NC4CCN(C)CC4)cc3OC)ncc2N(CC)C1=O` (racemic) [I-15, (rac)-4-(9-Cyclopentyl-5,7-diethyl-6-oxo-6,7,8,9-tetrahydro-5H-pyrimido[4,5-b][1,4]diazepin-2-ylamino)-3-methoxy-N-(1-methyl-piperidin-4-yl)-benzamide] was 500 to 5000 nM; that for `CCCC1CN(C2CCCC2)c2nc(Nc3ccc(C(=O)NC4CCN(C)CC4)cc3OC)ncc2N(C)C1=O` (racemic) [I-17, (rac)-4-(9-Cyclopentyl-5-methyl-6-oxo-7-propyl-6,7,8,9-tetrahydro-5H-pyrimido[4,5-b][1,4]diazepin-2-ylamino)-3-methoxy-N-(1-methyl-piperidin-4-yl)-benzamide] was 500 to 5000 nM.
In the case of `COc1cc(C(=O)NC2CCN(C)CC2)ccc1Nc1ncc2c(n1)N(C1CCCCC1)CC(C)C(=O)N2` (racemic) [I-18, (rac)-4-(9-Cyclohexyl-7-methyl-6-oxo-6,7,8,9-tetrahydro-5H-pyrimido[4,5-b][1,4]diazepin-2-ylamino)-3-methoxy-N-(1-methyl-piperidin-4-yl)-benzamide] it was 500 to 5000 nM.
In the case of `COc1cc(C(=O)NC2CCN(C)CC2)ccc1Nc1ncc2c(n1)N(C1CCCCC1)CC(C)C(=O)N2C` (racemic) [I-19, (rac)-4-(9-Cyclohexyl-5,7-dimethyl-6-oxo-6,7,8,9-tetrahydro-5H-pyrimido[4,5-b][1,4]diazepin-2-ylamino)-3-methoxy-N-(1-methyl-piperidin-4-yl)-benzamide] it was less than 500 nM; in that of `CC1CN(C2CCCCC2)c2nc(Nc3ccc4oc(-c5ccncc5)nc4c3)ncc2N(C)C1=O` (racemic) [I-26, (rac)-9-Cyclohexyl-5,7-dimethyl-2-(2-pyridin-4-yl-benzooxazol-5-ylamino)-5,7,8,9-tetrahydro-pyrimido[4,5-b][1,4]diazepin-6-one], more than 5000 nM; in that of `COc1cc(C(=O)NC2CCN(C)CC2)ccc1Nc1ncc2c(n1)N(CCC(C)C)CC(C)C(=O)N2C` (racemic) [I-27, (rac)-4-[5,7-Dimethyl-9-(3-methyl-butyl)-6-oxo-6,7,8,9-tetrahydro-5H-pyrimido[4,5-b][1,4]diazepin-2-ylamino]-3-methoxy-N-(1-methyl-piperidin-4-yl)-benzamide], 500 to 5000 nM.
As to `COc1cc(C(=O)NC2CCN(C)CC2)ccc1Nc1ncc2c(n1)N(C1CCCC1)C(C)C(C)C(=O)N2C` (racemic) [I-41, (rac)-4-(9-Cyclopentyl-5,7,8-trimethyl-6-oxo-6,7,8,9-tetrahydro-5H-pyrimido[4,5-b][1,4]diazepin-2-ylamino)-3-methoxy-N-(1-methyl-piperidin-4-yl)-benzamide], the IC50 is less than 500 nM.
In the case of `COc1cc(C(=O)NC2CCN(C)CC2)ccc1Nc1ncc2c(n1)N(Cc1ccccc1)CC(C)C(=O)N2C` (racemic) [I-42, (rac)-4-(9-Benzyl-5,7-dimethyl-6-oxo-6,7,8,9-tetrahydro-5H-pyrimido[4,5-b][1,4]diazepin-2-ylamino)-3-methoxy-N-(1-methyl-piperidin-4-yl)-benzamide] it was 500 to 5000 nM.
In the case of `COc1cc(C(=O)NC2CCN(C)CC2)ccc1Nc1ncc2c(n1)N(C1CCOCC1)CC(C)C(=O)N2C` (racemic) [I-45, (rac)-4-[5,7-Dimethyl-6-oxo-9-(tetrahydro-pyran-4-yl)-6,7,8,9-tetrahydro-5H-pyrimido[4,5-b][1,4]diazepin-2-ylamino]-3-methoxy-N-(1-methyl-piperidin-4-yl)-benzamide] it was less than 500 nM; in that of `COc1cc(C(=O)NC2CCN(C)CC2)ccc1Nc1ncc2c(n1)N(C1CC1)C(C)C(C)C(=O)N2C` (racemic) [I-46, (rac)-4-(9-Cyclopropyl-5,7,8-trimethyl-6-oxo-6,7,8,9-tetrahydro-5H-pyrimido[4,5-b][1,4]diazepin-2-ylamino)-3-methoxy-N-(1-methyl-piperidin-4-yl)-benzamide], less than 500 nM; in that of `CC1CN(C2CCCC2)c2nc(Nc3ccc(O)c(NC(=O)c4cccnc4)c3)ncc2N(C)C1=O` (racemic) [I-47, (rac)-N-[5-(9-Cyclopentyl-5,7-dimethyl-6-oxo-6,7,8,9-tetrahydro-5H-pyrimido[4,5-b][1,4]diazepin-2-ylamino)-2-hydroxy-phenyl]-nicotinamide], 500 to 5000 nM.
In the case of `CC1CN(C2CCCC2)c2nc(Nc3ccc(O)c(NC(=O)c4ccncc4)c3)ncc2N(C)C1=O` (racemic) [I-48, (rac)-N-[5-(9-Cyclopentyl-5,7-dimethyl-6-oxo-6,7,8,9-tetrahydro-5H-pyrimido[4,5-b][1,4]diazepin-2-ylamino)-2-hydroxy-phenyl]-isonicotinamide] it was 500 to 5000 nM; in that of `COc1cc(C(=O)NC2CCN(C)CC2)ccc1Nc1ncc2c(n1)N(C1CCCC1)CC(CCO)C(=O)N2C` (racemic) [I-49, (rac)-4-[9-Cyclopentyl-7-(2-hydroxy-ethyl)-5-methyl-6-oxo-6,7,8,9-tetrahydro-5H-pyrimido[4,5-b][1,4]diazepin-2-ylamino]-3-methoxy-N-(1-methyl-piperidin-4-yl)-benzamide], 500 to 5000 nM; in that of `COc1cc(C(=O)NC2CCN(C)CC2)ccc1Nc1ncc2c(n1)N(c1ccccc1)CC(C)C(=O)N2C` (racemic) [I-51, (rac)-4-(5,7-Dimethyl-6-oxo-9-phenyl-6,7,8,9-tetrahydro-5H-pyrimido[4,5-b][1,4]diazepin-2-ylamino)-3-methoxy-N-(1-methyl-piperidin-4-yl)-benzamide], 500 to 5000 nM.
As to `COc1cc(C(=O)NC2CCN(C)CC2)ccc1Nc1ncc2c(n1)N(C1CCC1)CC(C)C(=O)N2C` (racemic) [I-52, (rac)-4-(9-Cyclobutyl-5,7-dimethyl-6-oxo-6,7,8,9-tetrahydro-5H-pyrimido[4,5-b][1,4]diazepin-2-ylamino)-3-methoxy-N-(1-methyl-piperidin-4-yl)-benzamide], the half-inhibitory concentration (IC50) is less than 500 nM.
With `COc1cc(C(=O)NC2CCN(C)CC2)ccc1Nc1ncc2c(n1)N(CC1CCCC1)CC(C)C(=O)N2C` (racemic) [I-55, (rac)-4-(9-Cyclopentylmethyl-5,7-dimethyl-6-oxo-6,7,8,9-tetrahydro-5H-pyrimido[4,5-b][1,4]diazepin-2-ylamino)-3-methoxy-N-(1-methyl-piperidin-4-yl)-benzamide], the IC50 was less than 500 nM.
On to `COc1cc(C(=O)NC2CCN(C)CC2)ccc1Nc1ncc2c(n1)N(C1CCCC1C)CCC(=O)N2C` (racemic) [I-57, (rac)-3-Methoxy-4-[5-methyl-9-(2-methyl-cyclopentyl)-6-oxo-6,7,8,9-tetrahydro-5H-pyrimido[4,5-b][1,4]diazepin-2-ylamino]-N-(1-methyl-piperidin-4-yl)-benzamide], for which the IC50 was less than 500 nM.
